Experiments:
[1] = molecular target: human norepinephrine transporter (NET) (Homo sapiens (Human), UniProt P23975); test: Scintillation Proximity Assay (SPA) competition binding, human NET; details: recombinant hNET-CHO membranes, [3H]nisoxetine
[2] = molecular target: human dopamine transporter (DAT) (Homo sapiens (Human), UniProt Q01959); test: Scintillation Proximity Assay (SPA) competition binding, human DAT; details: recombinant hDAT-CHO membranes, [3H]WIN-35,428
Summary of the method: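 SPA binding on membranes from CHO cells stably expressing human DAT, with 5 nM [3H]WIN-35,428, WGA-PVT beads and 0.02% BSA in HEPES/NaCl/KCl buffer pH 7.4.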

[3] = molecular target: human serotonin transporter (SERT) (Homo sapiens (Human), UniProt P31645); test: Scintillation Proximity Assay (SPA) competition binding, human SERT; details: recombinant hSERT-CHO membranes, [3H]citalopram
[4] = molecular target: human ERG potassium channel (hERG) (Homo sapiens (Human), UniProt Q12809); test: hERG tail current recording, Rapid ICE automated patch-clamp; assay type: cell-based; details: HEK293 cells stably transfected with hERG
Protocol: Measure of the Effect on hERG Channel by Tail Current Recording Using In Vitro Rapid ICE™
The potency of the compounds of the invention in inhibiting human ERG potassium channel (hERG) tail current is assessed in a recombinant HEK293 cell line stably transfected with hERG cDNA using Rapid ICE™ (Rapid Ion Channel Electrophysiology) assay. Rapid ICE™ is an automated patch-clamp assay utilizing the PatchXpress 7000A system (Molecular Devices Corporation) or the QPatch HTX system (Sophion Bioscience A/S).
Briefly cells are cultivated for 24 to 72 hours before recordings in minimum essential medium supplemented with 10% FBS, 1% non-essential amino acids, 1% sodium pyruvate, 2 mM L-glutamine. The day of the experiment cells are detached with TrypLE and prepared to be loaded on the instrument. For PatchXpress cells are finally resuspended in 150 μl of Extracellular Buffer whereas for QPatch cells are resuspended in 7 ml Serum-Free Media containing 25 mM Hepes and Soybean trypsin inhibitor and immediately placed in the cell storage tank of the machine. The composition of the Extracellular Buffer is (mM): NaCl 137; KCl 4; CaCl2 1.8; MgCl2 1.0; D-glucose 10; N 2 hydroxyethylpiperazine-N′-2-ethanesulfonic acid (HEPES) 10; pH 7.4 with 1 M NaOH. The composition of the pipette solution is (mM): KCl 130; MgCl2 1.0; Ethylene glycol-bis(β-aminoethyl ether)-N,N,N′,N′-tetraacetic acid (EGTA) 5; MgATP 5; HEPES 10; pH 7.2 with 1 M KOH. The voltage protocol includes the following steps: step from −80 mV to −50 mV for 200 ms, +20 mV for 4.8 s, step to −50 mV for 5 s then step to the holding potential of −80 mV. Compounds of the invention are dissolved in DMSO and diluted in Extracellular Buffer to achieve final test concentrations (0.1, 1 and 10 μM) in 0.1% DMSO. The voltage protocol is run and recorded continuously during the experiment. The vehicle, corresponding to 0.1% DMSO in Extracellular Buffer, is then applied for 3 min followed by the test substance in triplicate. The standard combined exposure time is 5 min. The average of tail current amplitude values recorded from 4 sequential voltage pulses is used to calculate for each cell the effect of the test substance by calculating the residual current (% control) compared with vehicle pre-treatment. Data are reported as % inhibition for each concentration tested and IC50 values are estimated using DataXpress or QPatch software. At least two cells are tested, more if results diverge.

human dopamine transporter (DAT), sequence (Q01959 whole entry): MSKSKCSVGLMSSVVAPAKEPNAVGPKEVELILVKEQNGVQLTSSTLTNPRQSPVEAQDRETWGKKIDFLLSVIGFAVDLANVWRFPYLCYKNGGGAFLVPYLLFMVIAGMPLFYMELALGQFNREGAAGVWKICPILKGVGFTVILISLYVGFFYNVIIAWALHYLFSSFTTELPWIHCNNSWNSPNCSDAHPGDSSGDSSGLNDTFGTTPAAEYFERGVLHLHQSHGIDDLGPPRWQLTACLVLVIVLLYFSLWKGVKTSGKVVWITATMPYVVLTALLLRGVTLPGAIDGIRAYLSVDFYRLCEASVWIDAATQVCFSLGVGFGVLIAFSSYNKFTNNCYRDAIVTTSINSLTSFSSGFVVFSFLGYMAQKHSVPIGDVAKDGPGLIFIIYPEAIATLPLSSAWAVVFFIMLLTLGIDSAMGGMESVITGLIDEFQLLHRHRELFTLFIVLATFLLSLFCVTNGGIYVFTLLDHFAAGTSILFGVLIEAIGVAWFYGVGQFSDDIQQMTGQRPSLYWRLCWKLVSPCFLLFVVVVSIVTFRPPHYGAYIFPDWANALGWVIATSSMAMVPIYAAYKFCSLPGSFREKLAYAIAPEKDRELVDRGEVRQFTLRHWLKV
human serotonin transporter (SERT), sequence (P31645 whole entry): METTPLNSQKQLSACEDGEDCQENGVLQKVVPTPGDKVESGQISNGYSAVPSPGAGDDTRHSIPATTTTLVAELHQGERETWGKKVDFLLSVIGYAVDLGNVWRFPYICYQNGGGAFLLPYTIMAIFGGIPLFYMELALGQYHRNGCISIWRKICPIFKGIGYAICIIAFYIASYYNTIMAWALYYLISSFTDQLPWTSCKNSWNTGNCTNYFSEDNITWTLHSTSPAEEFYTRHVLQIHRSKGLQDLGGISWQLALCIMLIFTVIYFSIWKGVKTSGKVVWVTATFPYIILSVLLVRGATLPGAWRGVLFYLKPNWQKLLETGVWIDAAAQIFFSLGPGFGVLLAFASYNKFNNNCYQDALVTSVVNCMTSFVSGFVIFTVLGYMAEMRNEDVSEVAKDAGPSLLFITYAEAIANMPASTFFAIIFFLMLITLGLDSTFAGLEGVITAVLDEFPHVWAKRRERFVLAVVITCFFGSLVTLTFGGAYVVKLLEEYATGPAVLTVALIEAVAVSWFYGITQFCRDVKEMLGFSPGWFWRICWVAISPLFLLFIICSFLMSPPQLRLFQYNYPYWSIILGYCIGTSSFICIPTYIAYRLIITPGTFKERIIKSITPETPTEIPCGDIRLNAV
human norepinephrine transporter (NET), sequence (P23975 whole entry): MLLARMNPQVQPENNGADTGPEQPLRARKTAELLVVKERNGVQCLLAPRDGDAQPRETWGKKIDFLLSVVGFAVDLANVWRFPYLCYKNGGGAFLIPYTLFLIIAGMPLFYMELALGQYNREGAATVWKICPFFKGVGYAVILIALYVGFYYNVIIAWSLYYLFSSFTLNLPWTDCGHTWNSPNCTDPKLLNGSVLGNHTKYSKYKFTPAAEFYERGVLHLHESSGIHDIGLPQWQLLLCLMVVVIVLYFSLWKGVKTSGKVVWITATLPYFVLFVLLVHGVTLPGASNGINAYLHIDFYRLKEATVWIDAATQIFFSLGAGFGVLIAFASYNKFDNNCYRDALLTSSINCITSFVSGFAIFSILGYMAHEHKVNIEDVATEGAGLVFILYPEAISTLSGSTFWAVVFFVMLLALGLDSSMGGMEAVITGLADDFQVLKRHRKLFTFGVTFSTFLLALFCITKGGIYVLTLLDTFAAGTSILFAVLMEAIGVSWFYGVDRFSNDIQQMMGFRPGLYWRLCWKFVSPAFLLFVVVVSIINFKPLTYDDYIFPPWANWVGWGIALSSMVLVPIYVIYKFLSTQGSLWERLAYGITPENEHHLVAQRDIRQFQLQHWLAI
human ERG potassium channel (hERG), sequence (Q12809 whole entry): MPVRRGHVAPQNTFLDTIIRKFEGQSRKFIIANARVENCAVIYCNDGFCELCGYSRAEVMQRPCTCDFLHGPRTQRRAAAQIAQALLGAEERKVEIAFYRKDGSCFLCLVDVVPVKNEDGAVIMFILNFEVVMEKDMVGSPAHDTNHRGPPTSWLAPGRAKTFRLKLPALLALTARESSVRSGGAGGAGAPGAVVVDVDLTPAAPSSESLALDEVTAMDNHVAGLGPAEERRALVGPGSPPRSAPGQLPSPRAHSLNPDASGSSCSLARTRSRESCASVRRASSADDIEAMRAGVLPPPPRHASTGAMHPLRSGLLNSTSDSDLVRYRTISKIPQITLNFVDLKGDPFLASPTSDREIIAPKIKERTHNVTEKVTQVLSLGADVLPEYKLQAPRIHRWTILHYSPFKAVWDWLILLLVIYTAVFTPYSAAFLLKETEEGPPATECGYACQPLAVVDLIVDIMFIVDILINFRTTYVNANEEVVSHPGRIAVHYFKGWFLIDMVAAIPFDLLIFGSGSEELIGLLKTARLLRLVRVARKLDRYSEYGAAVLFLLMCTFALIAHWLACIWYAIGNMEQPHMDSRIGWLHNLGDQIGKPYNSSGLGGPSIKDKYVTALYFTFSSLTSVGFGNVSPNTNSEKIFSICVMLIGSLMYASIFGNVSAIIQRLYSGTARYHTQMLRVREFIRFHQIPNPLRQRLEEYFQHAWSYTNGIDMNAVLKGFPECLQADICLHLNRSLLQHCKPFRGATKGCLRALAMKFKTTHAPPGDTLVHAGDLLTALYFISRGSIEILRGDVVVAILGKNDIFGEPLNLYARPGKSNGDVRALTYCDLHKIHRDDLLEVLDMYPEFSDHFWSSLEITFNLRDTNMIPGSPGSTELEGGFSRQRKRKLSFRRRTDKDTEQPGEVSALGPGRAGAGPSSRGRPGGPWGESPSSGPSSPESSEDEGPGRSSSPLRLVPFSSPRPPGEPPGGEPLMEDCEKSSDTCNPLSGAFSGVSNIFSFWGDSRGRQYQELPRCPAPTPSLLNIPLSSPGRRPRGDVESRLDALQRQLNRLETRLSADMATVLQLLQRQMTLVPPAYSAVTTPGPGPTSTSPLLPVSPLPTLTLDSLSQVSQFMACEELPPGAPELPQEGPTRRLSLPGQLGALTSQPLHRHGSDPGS

SMILES	pIC50 NET [1]	pIC50 DAT [2]	pIC50 SERT [3]	pIC50 hERG [4]	IC50 [4]
Fc1cccc(Oc2cc(F)c(F)cc2N2CCC3(CCNCC3)CC2)c1 [Example 82, 3-[4,5-difluoro-2-(3-fluorophenoxy)phenyl]-3,9-diazaspiro[5.5]undecane]	6.10	8.14	8.00	6.0	–
Fc1cccc(Oc2cc(F)cc(N3CCC4(CCNC4)CC3)c2)c1 [Example 92, 8-[3-fluoro-5-(3-fluorophenoxy)phenyl]-2,8-diazaspiro[4.5]decane]	7.33	8.84	7.37	6.2	–
Fc1cccc(Oc2cc(F)c(F)cc2N2CCC3(CCNCC34OCCO4)C2)c1 (stereo not drawn) [Example 93, 8-[4,5-difluoro-2-(3-fluorophenoxy)phenyl]-1,4-dioxa-8,13-diazadispiro[4.0.4^6.4^5]tetradecane]	6.64	8.44	6.90	6.0	–
O=C1COC2(CCN(c3nc(Oc4cccc(F)c4)cc(C(F)(F)F)n3)CC2)CN1 [Example 68, 9-[4-(3-fluorophenoxy)-6-(trifluoromethyl)pyrimidin-2-yl]-1-oxa-4,9-diazaspiro[5.5]undecan-3-one]	5.39	7.28	4.45	–	> 10 µM
Cl.Fc1cccc(Oc2cc(C3CC3)nc(N3CCC4(CC3)CNCCO4)n2)c1 [Example 65, 9-[4-cyclopropyl-6-(3-fluorophenoxy)pyrimidin-2-yl]-1-oxa-4,9-diazaspiro[5.5]undecane hydrochloride]	7.08	8.79	5.44	5.7	–
Fc1cccc(Oc2cccc(N3CCC4(CC3)CNCCO4)c2F)c1 [Example 19, 9-[2-fluoro-3-(3-fluorophenoxy)phenyl]-1-oxa-4,9-diazaspiro[5.5]undecane]	7.01	8.64	5.99	5.4	–
Fc1cccc(Oc2ccccc2N2CCC3(CC2)CNCCO3)c1 [Example 4, 9-[2-(3-fluorophenoxy)phenyl]-1-oxa-4,9-diazaspiro[5.5]undecane]	6.13	7.31	6.24	5.8	–
O=S1(=O)CCNCC12CCN(c1cc(F)c(F)cc1Oc1cccc(F)c1)CC2 [Example 71, 9-[4,5-difluoro-2-(3-fluorophenoxy)phenyl]-1λ^6-thia-4,9-diazaspiro[5.5]undecane-1,1-dione]	4.82	6.22	4.55	5.1	–
O=C1NCC2(CCN(c3nc(Oc4cccc(F)c4)cc(C(F)(F)F)n3)CC2)O1 [Example 89, 8-[4-(3-fluorophenoxy)-6-(trifluoromethyl)pyrimidin-2-yl]-1-oxa-3,8-diazaspiro[4.5]decan-2-one]	5.66	7.73	4.89	5.7	–
Fc1cccc(Oc2cc(F)c(F)cc2N2CCC3(CC2)CNCCO3)c1 [Example 1, 9-[4,5-difluoro-2-(3-fluorophenoxy)phenyl]-1-oxa-4,9-diazaspiro[5.5]undecane]	5.69	7.96	6.44	6.0	–
Cl.N#Cc1cc(Oc2cccc(F)c2)nc(N2CCC3(CC2)CNCCO3)n1 [Example 62, 6-(3-fluorophenoxy)-2-{1-oxa-4,9-diazaspiro[5.5]undecan-9-yl}pyrimidine-4-carbonitrile hydrochloride]	6.36	8.01	5.83	6.5	–
COc1cccc(Oc2cc(C)nc(N3CCC4(CC3)CNCCO4)n2)c1.Cl [Example 49, 9-[4-(3-methoxyphenoxy)-6-methylpyrimidin-2-yl]-1-oxa-4,9-diazaspiro[5.5]undecane hydrochloride]	5.45	6.92	4.67	5.5	–
Cl.FC(F)(F)c1cc(Oc2ccccc2)nc(N2CCC3(CC2)CNCCO3)n1 [Example 55, 9-[4-phenoxy-6-(trifluoromethyl)pyrimidin-2-yl]-1-oxa-4,9-diazaspiro[5.5]undecane hydrochloride]	6.12	8.19	6.14	5.7	–
Fc1cccc(Oc2ccc(F)c(N3CCC4(CC3)CNCCO4)c2)c1 [Example 10, 9-[2-fluoro-5-(3-fluorophenoxy)phenyl]-1-oxa-4,9-diazaspiro[5.5]undecane]	6.07	7.56	5.32	5.6	–
Cl.Fc1cccc(Oc2cc(C(F)(F)F)nc(N3CCC4(CCNCC45OCCO5)C3)n2)c1 (stereo not drawn) [Example 95, 8-[4-(3-fluorophenoxy)-6-(trifluoromethyl)pyrimidin-2-yl]-1,4-dioxa-8,13-diazadispiro[4.0.4^6.4^5]tetradecane hydrochloride]	6.09	8.16	6.29	5.6	–
Fc1cccc(Oc2cc(F)c(F)c(N3CCC4(CC3)CNCCO4)c2)c1 [Example 13, 9-[2,3-difluoro-5-(3-fluorophenoxy)phenyl]-1-oxa-4,9-diazaspiro[5.5]undecane]	6.74	8.38	6.33	5.6	–
Cc1cc(Oc2cccc(F)c2)nc(N2CCC3(CC2)CNCCO3)n1.Cl [Example 44, 9-[4-(3-fluorophenoxy)-6-methylpyrimidin-2-yl]-1-oxa-4,9-diazaspiro[5.5]undecane hydrochloride]	6.65	8.29	4.80	6.0	–
Cl.Fc1ccccc1Oc1cc(C(F)(F)F)nc(N2CCC3(CC2)CNCCO3)n1 [Example 57, 9-[4-(2-fluorophenoxy)-6-(trifluoromethyl)pyrimidin-2-yl]-1-oxa-4,9-diazaspiro[5.5]undecane hydrochloride]	5.94	7.89	6.18	5.7	–
Fc1cccc(Oc2cc(F)c(F)cc2N2CCC3(CNCCO3)C2)c1 (stereo not drawn) [Example 83, 2-[4,5-difluoro-2-(3-fluorophenoxy)phenyl]-6-oxa-2,9-diazaspiro[4.5]decane]	6.76	7.24	6.40	6.2	–
Cl.Fc1cccc(Oc2ccnc(N3CCC4(CC3)CNCCO4)n2)c1 [Example 42, 9-[4-(3-fluorophenoxy)pyrimidin-2-yl]-1-oxa-4,9-diazaspiro[5.5]undecane hydrochloride]	5.64	7.33	4.69	6.4	–
N#Cc1ccc(Oc2ccccc2)c(N2CCC3(CC2)CNCCO3)c1 [Example 5, 3-{1-oxa-4,9-diazaspiro[5.5]undecan-9-yl}-4-phenoxybenzonitrile]	6.19	6.82	7.63	6.2	–

— US9908897B2, “Spirocyclic derivatives” (CHRONOS THERAPEUTICS LIMITED, priority 2014, dated 2018)
